The results in this text go back to US20040058956A1, “Pharmaceutical composition having an improved water solubility” (priority 2000, published 2004).

Broadly, the melting point is the temperature of the solid-liquid transition. `Fc1ccc(/C=C/c2nc(COc3cccc(CCCn4ccnn4)c3)co2)cc1` [B3, 1-{3-[3-({2-[(E)-2-(4-fluorophenyl)ethenyl]-1,3-oxazol-4-yl}methoxy)phenyl]propyl}-1H-1,2,3-triazole] registered a melting point of 105 to 106 °C.

Consider `FC(F)(F)c1ccc(/C=C/c2nc(COc3ccc(CCCn4ccnn4)cc3)co2)cc1` [B5, 1-(3-{4-[(2-{(E)-2-[4-(trifluoromethyl)phenyl]ethenyl}-1,3-oxazol-4-yl)methoxy]phenyl}propyl)-1H-1,2,3-triazole], for which the melting point fell in the range of 157 to 158 °C.

In the case of `Fc1ccc(/C=C/c2nc(COc3ccc(CCCCn4ccnn4)cc3)co2)c(F)c1` [B7, 1-{4-[4-({2-[(E)-2-(2,4-difluorophenyl)ethenyl]-1,3-oxazol-4-yl}methoxy)phenyl]butyl}-1H-1,2,3-triazole], the melting point is 115 to 117 °C.

`Fc1ccc(/C=C/c2nc(COc3cccc(CCCn4ccnn4)c3)co2)c(F)c1` [B8, 1-{3-[3-({2-[(E)-2-(2,4-difluorophenyl)ethenyl]-1,3-oxazol-4-yl}methoxy)phenyl]propyl}-1H-1,2,3-triazole] yielded a melting point of 89 to 90 °C.

As to `Cc1ccc(/C=C/c2nc(COc3ccc(CCCCn4ccnc4CCO)cc3)co2)cc1` [B10, 2-[1-[4-[4-[[2-[(E)-2-(4-methylphenyl)ethenyl]-1,3-oxazol-4-yl]methoxy]phenyl]butyl]-1H-imidazol-2-yl]-1-ethanol], the melting point lay in the range of 108 to 109 °C.

For `Cc1cccc(/C=C/c2nc(COc3ccc(CCCCn4ccnc4CCO)cc3)co2)c1` [B11, 2-[1-[4-[4-[[2-[(E)-2-(3-methylphenyl)ethenyl]-1,3-oxazol-4-yl]methoxy]phenyl]butyl]-1H-imidazol-2-yl]-1-ethanol], the melting point was in the range of 109 to 111 °C.

Turning to `CCc1ccc(/C=C/c2nc(COc3ccc(CCCCn4ccnc4CCO)cc3)co2)cc1` [B13, 2-[1-[4-[4-[[2-[(E)-2-(4-ethylphenyl)ethenyl]-1,3-oxazol-4-yl]methoxy]phenyl]butyl]-1H-imidazol-2-yl]-1-ethanol], the melting point fell in the range of 94 to 95 °C.

For the compound `OCCc1nccn1CCCCc1ccc(OCc2coc(/C=C/c3ccc(F)cc3)n2)cc1` [B14, 2-(1-{4-[4-({2-[(E)-2-(4-fluorophenyl)ethenyl]-1,3-oxazol-4-yl}methoxy)phenyl]butyl}-1H-imidazol-2-yl)-1-ethanol], the melting point was in the range of 130 to 132 °C.

Compound `OCCc1nccn1CCCCc1ccc(OCc2coc(/C=C/c3ccc(Cl)cc3)n2)cc1` [B15, 2-[1-[4-[4-[[2-[(E)-2-(4-chlorophenyl)ethenyl]-1,3-oxazol-4-yl]methoxy]phenyl]butyl]-1H-imidazol-2-yl]-1-ethanol] came in with a melting point of 127 to 128 °C.

With `OCCc1nccn1CCCCc1ccc(OCc2coc(/C=C/c3ccc(Br)cc3)n2)cc1` [B16, 2-[1-[4-[4-[[2-[(E)-2-(4-bromophenyl)ethenyl]-1,3-oxazol-4-yl]methoxy]phenyl]butyl]-1H-imidazol-2-yl]-1-ethanol], the melting point lay in the range of 149 to 150 °C.

Regarding `OCCc1nccn1CCCc1ccc(OCc2coc(/C=C/c3ccc(F)cc3F)n2)cc1` [B20, 2-[1-[3-[4-[[2-[(E)-2-(2,4-difluorophenyl)ethenyl]-1,3-oxazol-4-yl]methoxy]phenyl]propyl]-1H-imidazol-2-yl]-1-ehtanol], the melting point was in the range of 94 to 96 °C.

As for `Cc1cccc(/C=C/c2nc(COc3ccc(CCCCn4ccnc4CC(O)CO)cc3)co2)c1` (stereo not shown) [B22, 3-(1-{4-[4-({2-[(E)-2-(3-methylpheyl)ethenyl]-1,3-oxazol-4-yl}methoxy)phenyl]butyl}-1H-imidazol-2-yl)-1,2-propanediol], the melting point lay within 102 to 104 °C.

The compound `OCC(O)Cc1nccn1CCCCc1ccc(OCc2coc(/C=C/c3ccc(F)cc3)n2)cc1` (stereo not shown) [B23, 3-(1-{4-[4-({2-[(E)-2-(4-fluorophenyl)ethenyl]-1,3-oxazol-4-yl}methoxy)phenyl]butyl}-1H-imidazol-2-yl)-1,2-propanediol] displayed a melting point of 114 to 116 °C.

In turn, `OCC(O)Cc1nccn1CCCCc1ccc(OCc2coc(/C=C/c3ccc(C(F)(F)F)cc3)n2)cc1` (stereo not shown) [B24, 3-[1-(4-{4-[(2-{(E)-2-{4-(trifluoromethyl)phenyl}ethenyl}-1,3-oxazol-4-yl)methoxy]phenyl}butyl]-1H-imidazol-2-yl]-1,2-propanediol] came in with a melting point of 142 to 143 °C.

As to `OCC(O)Cc1nccn1CCCc1cccc(OCc2coc(/C=C/c3ccc(C(F)(F)F)cc3)n2)c1` (stereo not shown) [B25, 3-[1-(3-{3-[(2-{(E)-2-[4-(trifluoromethyl)phenyl]ethenyl}-1,3-oxazol-4-yl)methoxy]phenyl}propyl)-1H-imidazol-2-yl]-1,2-propanediol], the melting point lay in the range of 102 to 104 °C.

`OCC(O)Cc1nccn1CCCc1cccc(OCc2coc(/C=C/c3ccc(F)cc3F)n2)c1` (stereo not shown) [B27, 3-(1-{3-[3-({2-[(E)-2-(2,4-difluorophenyl)ethenyl]-1,3-oxazol-4-yl}methoxy)phenyl]propyl}1H-imidazol-2-yl)-1,2-propanediol]: the melting point was 92 to 94 °C.

`OCC(O)Cc1nccn1CCCCc1ccc(OCc2coc(/C=C/c3c(F)cccc3F)n2)cc1` (stereo not shown) [B28, 3-[1-[4-[4-[[2-[(E)-2-(2,6-difluorophenyl)ethenyl]-1,3-oxazol-4-yl]methoxy]phenyl]butyl]-1H-imidazol-2-yl]-1,2-propanediol] showed a melting point of 123 to 125 °C.

In turn, `Fc1ccc(/C=C/c2nc(COc3ccc(CCCCn4ccnn4)cc3)co2)cc1` [Reference Example B2, 1-{4-[4-({2-[(E)-2-(4-fluorophenyl)ethenyl]-1,3-oxazol-4-yl}methoxy)phenyl]butyl}-1H-1,2,3-triazole] yielded a melting point of 124 to 125 °C.

On to `FC(F)(F)c1ccc(/C=C/c2nc(COc3cccc(CCCn4ccnn4)c3)co2)cc1` [Reference Example B6, 1-(3-{3-[(2-{(E)-2-[4-(trifluoromethyl)phenyl]ethenyl}-1,3-oxazol-4-yl)methoxy]phenyl}propyl)-1H-1,2,3-triazole], for which the melting point lay within 115 to 116 °C.

`Cc1ccccc1/C=C/c1nc(COc2ccc(CCCCn3ccnc3CCO)cc2)co1` [Reference Example B12, 2-[1-[4-[4-[[2-[(E)-2-(2-methylphenyl)ethenyl]-1,3-oxazol-4-yl]methoxy]phenyl]butyl]-1H-imidazol-2-yl]-1-ethanol] gave a melting point of 91 to 93 °C.

The compound `OCCc1nccn1CCCCc1ccc(OCc2coc(/C=C/c3ccc(F)cc3F)n2)cc1` [Reference Example B19, 2-[1-[4-[4-[[2-[(E)-2-(2,4-difluorophenyl)ethenyl]-1,3-oxazol-4-yl]methoxy]phenyl]butyl]-1H-imidazol-2-yl]-1-ethanol] returned a melting point of 93 to 95 °C.

Regarding `OCC(O)Cc1nccn1CCCCc1ccc(OCc2coc(/C=C/c3ccc(F)cc3F)n2)cc1` (stereo not shown) [Reference Example B26, 3-(1-{4-[4-({2-[(E)-2-(2,4-difluorophenyl)ethenyl]-1,3-oxazol-4-yl}methoxy)phenyl]butyl}-1H-imidazol-2-yl)-1,2-propanediol], the melting point lay within 126 to 128 °C.
